Measured values reported in patent US6569897B1, “Alkenyldiarylmethane non-nucleoside HIV-1 reverse transcriptase inhibitors” (priority 1998, dated 2003).
Where two headings read alike, the source gives them in different places.

How the values were obtained:
in vitro = conditions: human, uninfected (mock-infected) CEM-SS cells
HIV-1RF in CEM-SS cells [1] = assay: microbe, parasite or virus in culture; conditions: Human immunodeficiency virus 1, CEM-SS, read-out: EC50 (μM), 50% inhibitory concentration for cytopathicity
HIV-1RF in CEM-SS cells [2] = system: HIV-1RF in CEM-SS cells
HIV-1 RF in CEM-SS = assay: microbe, parasite or virus in culture; assay type: cell-based; conditions: Human immunodeficiency virus 1, CEM-SS
HIV-1 IIIB in CEM-SS = assay: microbe, parasite or virus in culture; assay type: cell-based; conditions: Human immunodeficiency virus 1, IIIB
HIV-1 TEKI in PBMC = assay: microbe, parasite or virus in culture; assay type: cell-based; conditions: Human immunodeficiency virus 1, PBMC
HIV-1 ROJO in PBMC = assay: microbe, parasite or virus in culture; assay type: cell-based; conditions: Human immunodeficiency virus 1, PBMC
HIV-1 Clade A in PBMC = assay: microbe, parasite or virus in culture; assay type: cell-based; conditions: Human immunodeficiency virus 1, PBMC
HIV-1 Clade B in PBMC = assay: microbe, parasite or virus in culture; assay type: cell-based; conditions: Human immunodeficiency virus 1, PBMC
HIV-1 Clade C in PBMC = assay: microbe, parasite or virus in culture; assay type: cell-based; conditions: Human immunodeficiency virus 1, PBMC
HIV-1 Clade D in PBMC = assay: microbe, parasite or virus in culture; assay type: cell-based; conditions: Human immunodeficiency virus 1, PBMC
HIV-1 Clade E in PBMC = assay: microbe, parasite or virus in culture; assay type: cell-based; conditions: Human immunodeficiency virus 1, PBMC
HIV-I Clade F in PBMC = assay: microbe, parasite or virus in culture; assay type: cell-based; conditions: Human immunodeficiency virus 1, PBMC
HIV-1 Ba-L in Mono/Mac = assay: microbe, parasite or virus in culture; assay type: cell-based; conditions: Human immunodeficiency virus 1, BAL
HIV-1 IIIB Wild Type = assay: microbe, parasite or virus in culture; assay type: cell-based; conditions: Human immunodeficiency virus 1, IIIB
[3] = system: 129/Cost isolate, RT K103N; assay type: cell-based, HIV-1
3TC isolate, RT M184I = assay type: cell-based
HIV-1 NL4-3 Wildtype = assay: microbe, parasite or virus in culture; assay type: cell-based; conditions: Human immunodeficiency virus 1, NL43, CEM-SS
HIV-1 NL4-3, RT Y188C = assay type: cell-based
HIV-1 NL4-3, RT K101E = assay type: cell-based
HIV-1 NL4-3, RT A98G = assay type: cell-based
HIV-1 NL4-3, RT L74V = assay type: cell-based
HIV-1 NL4-3, RT V108I = assay type: cell-based
HIV-1 NL4-3, RT V106A = assay type: cell-based
HIV-1RF in CEM-SS cells [4] = conditions: reported previously; cited from earlier work

For `C=C(c1cc(Br)c(OC)c(C(=O)OC)c1)c1cc(Br)c(OC)c(C(=O)OC)c1` [Compound 3, 3′,3″-Dibromo-4′,4″-dimethoxy-5′,5″-bis(methoxycarbonyl)-1,1-diphenylethene], the melting point was 144 to 145 °C, the CC50 (in vitro) was 316 µM and the EC50 (HIV-1RF in CEM-SS cells [1]) was > 6.9 µM.

In the case of `CC=C(c1cc(Br)c(OC)c(C(=O)OC)c1)c1cc(Br)c(OC)c(C(=O)OC)c1` [Compound 4, 3′,3″-Dibromo-4′,4″-dimethoxy-5′,5″-bis(methoxycarbonyl)-1,1-diphenylpropene], the CC50 (in vitro) is reported as 10 µM and the EC50 (HIV-1RF in CEM-SS cells [1]) is reported as > 6.9 µM.

In the case of `COC=C(c1cc(Br)c(OC)c(C(=O)OC)c1)c1cc(Br)c(OC)c(C(=O)OC)c1` [Compound 5, 3′,3″-Dibromo-4′,4″-dimethoxy-5′,5″-bis(methoxycarbonyl)-1-methoxy-2,2-diphenylethene], the CC50 (in vitro) is reported as 22 µM and the EC50 (HIV-1RF in CEM-SS cells [1]) is reported as > 6.9 µM.

In the case of `COC(=O)c1cc(C(=CCCO)c2cc(Br)c(OC)c(C(=O)OC)c2)cc(Br)c1OC` [Compound 7, 3′,3″-Dibromo-4-hydroxy-4′,4″dimethoxy-5′,5″-bis(methoxycarbony)-1,1-diphenyl-1-butene], the “TI, therapeutic index (CC50 divided by EC50)” value (HIV-1RF in CEM-SS cells [2]; HIV-1RF, CEM-SS cells) is reported as >52, the CC50 (in vitro) is reported as > 316 µM and the EC50 (HIV-1RF in CEM-SS cells [1]) is reported as 6 µM.

For `COC(=O)c1cc(C(=CCCN=[N+]=[N-])c2cc(Br)c(OC)c(C(=O)OC)c2)cc(Br)c1OC` [Compound 9, 4-Azido-3′,3″-Dibromo-4′,4″dimethoxy-5′,5″-bis(methoxycarbony)-1,1-diphenyl-1-butene], the “TI, therapeutic index (CC50 divided by EC50)” value (HIV-1RF in CEM-SS cells [2]; HIV-1RF, CEM-SS cells) was >278, the CC50 (in vitro) was > 316 µM and the EC50 (HIV-1RF in CEM-SS cells [1]) was 1.1 µM.

In the case of `CCCCCC1OC1(c1cc(Br)c(OC)c(C(=O)OC)c1)c1cc(Br)c(OC)c(C(=O)OC)c1` (centres unmarked) [Compound 12, 3′,3″-Dibromo-4′,4″-dimethoxy-5′,5″-bis(methoxycarbonyl)-1,1,-diphenyl-1-heptene Epoxide], the CC50 (in vitro) is reported as > 100 µM and the EC50 (HIV-1RF in CEM-SS cells [1]) is reported as > 6.9 µM.

In the case of `COC(=O)c1cc(C(=CC(=O)O)c2cc(Cl)c(OC)c(C(=O)OC)c2)cc(Cl)c1OC` [Compound 14, 3′,3″-Dichloro-4′,4″-dimethoxy-5′,5″-bis(methoxycarbonyl)-3,3-diphenylpropenoic Acid], the CC50 (in vitro) is reported as 48 µM and the EC50 (HIV-1RF in CEM-SS cells [1]) is reported as > 6.9 µM.

For `COC(=O)C=C(c1cc(Cl)c(OC)c(C(=O)OC)c1)c1cc(Cl)c(OC)c(C(=O)OC)c1` [Compound 15, Methyl 3′,3″-Dichloro-4′,4″-dimethoxy-5,5Δ-bis(methoxycarbonyl)-3,3-diphenylpropenoate], the CC50 (in vitro) was 25 µM and the EC50 (HIV-1RF in CEM-SS cells [1]) was > 6.9 µM.

In the case of `COC(=O)c1cc(C(=CC(=O)OC(C)(C)C)c2cc(Cl)c(OC)c(C(=O)OC)c2)cc(Cl)c1OC` [Compound 16, tert-Butyl 3′,3″-Dichloro-4′,4″-dimethoxy-5,5″-bis(methoxycarbonyl)3,3-diphenylpropenoate], the CC50 (in vitro) is reported as > 100 µM and the EC50 (HIV-1RF in CEM-SS cells [1]) is reported as > 6.9 µM.

For `COC(=O)c1cc(C(=CCCO)c2cc(Cl)c(OC)c(C(=O)OC)c2)cc(Cl)c1OC` [Compound 18, 3′,3″-Dichloro-4-hydroxy-4′,4″dimethoxy-5′,5″-bis(methoxycarbony)-1,1-diphenyl-1-butene], the “TI, therapeutic index (CC50 divided by EC50)” value (HIV-1RF in CEM-SS cells [2]; HIV-1RF, CEM-SS cells) was 2, the CC50 (in vitro) was 16.8 µM and the EC50 (HIV-1RF in CEM-SS cells [1]) was 8.6 µM.

In the case of `COC(=O)c1cc(C(=CCCOS(C)(=O)=O)c2cc(Cl)c(OC)c(C(=O)OC)c2)cc(Cl)c1OC` [Compound 19, 3′,3″-Dichloro-4-methanesulfonyloxy-4′,4″dimethoxy-5′,5′-bis(methoxycarbony)-1,1-diphenyl-1-butene], the CC50 (in vitro) is reported as 6.9 µM and the EC50 (HIV-1RF in CEM-SS cells [1]) is reported as > 6.9 µM.

For `COC(=O)c1cc(C(=CCCN=[N+]=[N-])c2cc(Cl)c(OC)c(C(=O)OC)c2)cc(Cl)c1OC` [Compound 20, 4-Azido-3′,3″-Dichloro-4′,4″dimethoxy-5′,5′-bis(methoxycarbony)-1,1-diphenyl-1-butene], the “TI, therapeutic index (CC50 divided by EC50)” value (HIV-1RF in CEM-SS cells [2]) was 155, the “potency relative to the bromo azide 9” value (HIV-1RF in CEM-SS cells [2]; inhibition of viral cytopathicity) was “four times more potent” and the CC50 (in vitro) was 41.8 µM. It also gave an EC50 (HIV-1RF in CEM-SS cells [1]) of 0.27 µM.

For `COC(=O)c1cc(C(=CCCN)c2cc(Cl)c(OC)c(C(=O)OC)c2)cc(Cl)c1OC` [Compound 21, 4-Amino-3′,3″-Dichloro-4′,4″dimethoxy-5′,5″-bis(methoxycarbony)-1,1-diphenyl-1-butene], the “inhibition of HIV-1 cytopathic effect (in words)” value (“inhibition” for short) (HIV-1RF in CEM-SS cells [2]; HIV-1RF in CEM-SS cells) was “no detectable inhibitory cytopathic effect was detected”, the “inhibition” value (HIV-1RF in CEM-SS cells [2]; at 100 μM) was “inactive” and the CC50 (in vitro) was 15 µM. The EC50 (HIV-1RF in CEM-SS cells [1]) was > 6.9 µM.

For `COC(=O)CCCC=C(c1cc(Cl)c(OC)c(C(=O)OC)c1)c1cc(Cl)c(OC)c(C(=O)OC)c1` [Compound 22, Methyl 3′,3″-Dichloro-4′,4″-dimethoxy-5,5″-bis(methoxycarbonyl)-6,6-diphenylhexenoate], the EC50 (HIV-1 RF in CEM-SS) was 910 nM, the EC50 (HIV-1 IIIB in CEM-SS) was 160 nM and the EC50 (HIV-1 TEKI in PBMC) was 2200 nM. It also gave an EC50 (HIV-1 ROJO in PBMC) of 2280 nM, an EC50 (HIV-1 Clade A in PBMC) of 1090 nM and an EC50 (HIV-1 Clade B in PBMC) of 430 nM. For the same compound, the EC50 (HIV-1 Clade C in PBMC) was 1040 nM, the EC50 (HIV-1 Clade D in PBMC) was 1020 nM and the EC50 (HIV-1 Clade E in PBMC) was 400 nM. It also gave an EC50 (HIV-I Clade F in PBMC) of 1700 nM, an EC50 (HIV-1 Ba-L in Mono/Mac) of 360 nM and an EC50 (HIV-1 IIIB Wild Type) of 390 nM. For the same compound, the EC50 [3] was 10.8 µM, the EC50 (3TC isolate, RT M184I) was 1080 nM and the EC50 (HIV-1 NL4-3 Wildtype) was 1780 nM. The EC50 (HIV-1 NL4-3, RT Y188C) was 10.8 µM, the EC50 (HIV-1 NL4-3, RT K101E) was 3.05 µM and the EC50 (HIV-1 NL4-3, RT A98G) was 840 nM. For the same compound, the EC50 (HIV-1 NL4-3, RT L74V) was 2230 nM, the EC50 (HIV-1 NL4-3, RT V108I) was 12 µM and the EC50 (HIV-1 NL4-3, RT V106A) was 12.7 µM. For the same compound, the CC50 (in vitro) was 31.6 µM and the EC50 (HIV-1RF in CEM-SS cells [1]) was 0.013 µM.

In the case of `COc1c(Cl)cc(C(=CCC(=O)O)c2cc(Cl)c(OC)c(C(=O)O)c2)cc1C(=O)O` [Compound 23, 3′,3″-Dichloro-4′,4″-dimethoxy-5′,5″-bis(carboxy)-4,4-diphenyl-3-butenoic Acid], the CC50 (in vitro) is reported as > 316 µM and the EC50 (HIV-1RF in CEM-SS cells [1]) is reported as > 6.9 µM.

For `CC1(C)OC(=O)c2cc(C(=CCCO)c3cc(Cl)c4c(c3)C(=O)OC(C)(C)O4)cc(Cl)c2O1` [Compound 30], the “inhibition” value (HIV-1RF in CEM-SS cells [2]; HIV-1RF in CEM-SS cells) was “inactive”, the CC50 (in vitro) was 18.8 µM and the EC50 (HIV-1RF in CEM-SS cells [1]) was > 6.9 µM.

With `CC1(C)OC(=O)c2cc(C(=CCCBr)c3cc(Cl)c4c(c3)C(=O)OC(C)(C)O4)cc(Cl)c2O1` [Compound 31, 1-Bromo-4,4-bis(8′,8″-dichloro-2′,2′,2″,2″-tetramethyl-4′,4″-dioxo-6′,6″-0(1,3-benzodioxyl)]-3-butene] the “inhibition” value (HIV-1RF in CEM-SS cells [2]; HIV-1RF in CEM-SS cells) was “inactive”, the CC50 (in vitro) was 176 µM and the EC50 (HIV-1RF in CEM-SS cells [1]) was > 6.9 µM.

For `CCCCCC=C(c1ccc(OC)c(C(=O)OC)c1)c1ccc(OC)c(C(=O)OC)c1` [Compound 36, 4′,4″-Dimethoxy-3′,3″-bis(methoxycarbonyl)-1,1-diphenyl-1-heptene], the CC50 (in vitro) was 14 µM and the EC50 (HIV-1RF in CEM-SS cells [1]) was > 6.9 µM.

In the case of `CCCCCC=C(c1cc(I)c(OC)c(C(=O)OC)c1)c1cc(I)c(OC)c(C(=O)OC)c1` [Compound 40, 3′,3″-Diiodo-4′,4″-Dimethoxy-5′,5″-bis(methoxycarbonyl)-1,1-diphenyl-1-heptene], the “inhibition” value (HIV-1RF in CEM-SS cells [2]; HIV-1RF in CEM-SS cells) is reported as “inactivity”, the CC50 (in vitro) is reported as > 316 µM and the EC50 (HIV-1RF in CEM-SS cells [1]) is reported as > 6.9 µM.

For `CCCCCC=C(c1cc(Cl)c(OC)c(C(=O)OC)c1)c1cc(Cl)c(OC)c(C(=O)OC)c1` [Compound 41], the “potency relative to 1” value (HIV-1RF in CEM-SS cells [4]) is listed as “approximately half as potent as 1”.
